Results taken from ChEMBL document CHEMBL4130459, “3,5-Dimethylorsellinic Acid Derived Meroterpenoids from Penicillium chrysogenum MT-12, an Endophytic Fungus Isolated from Huperzia serrata” (J Nat Prod, 2017).

Key:
RAW264.7 [1] = experiment: Cytotoxicity against mouse RAW264.7 cells by MTT assay; format: cell-based
RAW264.7 [2] = experiment: Inhibition of LPS-induced nitric oxide production in mouse RAW264.7 cells after 24 hrs by Griess assay; format: functional, cell-based; settings: RAW264.7, 24 h
RAW264.7 [3] = experiment: Inhibition of LPS-induced nitric oxide production in mouse RAW264.7 cells at 80 uM after 24 hrs by Griess assay relative to control; format: functional; settings: RAW264.7, 24 h

IC50 (RAW264.7 [2]) | Compound | Activity (RAW264.7 [1]) | inhibition at 80 µM (RAW264.7 [3])
78.2 µM | COC(=O)[C@]12C(=O)[C@@H](C)O[C@@H]3OC(=O)[C@](C)(C[C@@H]4[C@]1(C)CC=C1C(=CC(=O)OC1(C)C)[C@@]4(C)O)[C@@H]32 | Non-Toxic | –
– | C[C@H]1OC(=O)[C@@]23[C@@H]4[C@H]5OC(=O)[C@]4(C)C[C@@H]4[C@]2(C)[C@H](C=C2C(=CC(=O)OC2(C)C)[C@@]42CO2)O[C@@]13O5 | – | < 50%
– | COC(=O)[C@]1(C)O[C@H]2OC(=O)[C@@H]3[C@H]2[C@@](C)(C[C@H]2C(C)=C4CC(=O)OC(C)(C)C4=CC[C@]32C)C1=O | – | < 50%
24 µM | C[C@H]1O[C@@H]2OC(=O)[C@]3(C)C[C@@H]4[C@@]5(C)C(=C1O[C@H]5C=C1C(=CC(=O)OC1(C)C)[C@@]41CO1)[C@]23O | Non-Toxic | –
– | COC(=O)[C@]12C[C@@](C)(O)C(=O)[C@](C)(C[C@H]3C(C)=C4CC(=O)OC(C)(C)C4=CC[C@@]31C)[C@]21CO1 | – | < 50%
– | C[C@H]1O[C@@H]2OC(=O)[C@]3(C)C[C@@H]4[C@@]5(C)C(=C1O[C@H]5C=C1C(=CC(=O)OC1(C)C)[C@@]41CO1)[C@H]23 | – | < 50%
– | COC(=O)[C@]12C(=O)[C@@H](C)O[C@@H]3OC(=O)[C@](C)(C[C@H]4[C@]5(CO5)C5=CC(=O)OC(C)(C)[C@]56O[C@@H]6C[C@@]41C)[C@@H]32 | – | < 50%
– | COC(=O)[C@]12C(=O)[C@@H](C)O[C@@H]3OC(=O)[C@](C)(C[C@H]4C(C)=C5CC(=O)OC(C)(C)C5=CC[C@@]41C)[C@@H]32 | – | < 50%
12.7 µM | C[C@@H]1O[C@H]2OC(=O)[C@@]3(C)C[C@H]4[C@@](C)(C(=O)C=C5C(=CC(=O)OC5(C)C)[C@]45CO5)[C@@H](C1=O)[C@@]23O | Non-Toxic | –
– | COC(=O)[C@]12C(=O)[C@H](C)O[C@@H]3OC(=O)[C@](C)(C[C@H]4[C@]5(CO5)C5=CC(=O)OC(C)(C)C5=CC[C@@]41C)[C@@H]32 [BERKELEYACETAL B] | – | < 50%
– | C=C1[C@@]2(C)C[C@H]3C(C)=C4CC(=O)OC(C)(C)C4=CC[C@]3(C)[C@]1(C(=O)OC)C(=O)[C@@](C)(O)C2=O [BERKELEYDIONE] | – | < 50%
– | C=C1[C@@]2(C)C[C@@H]3[C@](C)(CC=C4C(C)(C)OC(=O)CC[C@]43C)[C@]1(C(=O)OC)C(=O)[C@@](C)(O)C2=O [BERKELEYONE B] | – | < 50%
33.6 µM | COc1ccc2c(c1)c(CC(=O)O)c(C)n2C(=O)c1ccc(Cl)cc1 [INDOMETHACIN] | – | –

Compound | IC50 (RAW264.7 [2]) | Activity (RAW264.7 [1]) | inhibition at 80 µM (RAW264.7 [3])
C[C@@H]1O[C@@H]2OC(=O)[C@]3(C)C[C@@H]4[C@](C)(C(=O)C=C5C(=CC(=O)OC5(C)C)[C@@]45CO5)[C@H](C1=O)[C@H]23 [BERKELEYACETAL C] | 4.3 µM | Non-Toxic | –
